Results on 6 molecules are retold here after patent publication US20060153931A1, “Prevention of flap necrosis in plastic surgery” (priority 2001, published 2006).

Ends that are not written are not given here.

Test [1] relates to free tissue transfer of forearm tissues to the face. The note with it: human, in vivo.
The test system of test [2] is coronary artery bypass grafts. Put plainly: Patient with coronary artery bypass, vasospasm of the grafts (Example II). It counts as in vivo, human.
Test [3] has as its system skin flaps based on the epigastric artery and vein. Put plainly: Rat epigastric skin flap model, ET-1 induced pedicle vasoconstriction (Background Example 1). The class given is in vivo, rats.
The test system of a further test is headache. It counts as in vivo. Conditions: oral capsules each containing 100 mg aspirin and 200 mg of CX—NO. As to the method:
CX—NO of Example 14 of U.S. Pat. No. 6,403,759 is formulated in a gel at 50 mM and is admixed with aspirin and the combination used to fill capsules each containing 100 mg aspirin and 200 mg of CX—NO. […] Alternatively, the CX—NO is used as or included in a coating for aspirin tablets (100 mg aspirin in a tablet), and administration orally of the coated aspirin provides the same result.

The subject of a further test is pedicle flap. The note with it: 30 minutes after lidocaine application, topical to pedicle; cited from earlier work.
The test system of test [4] is island skin flaps based upon the epigastic artery and vein. Put plainly: Rat island skin flap model, ET-1 induced vasoconstriction, CX—NO (Background Example 2). The class given is in vivo, rats. Conditions: 0.25 ml of 3.17 mM CX—NO in DMSO, 15 min after ET-1, FIG. 1.
The mark [5] stands for this setting: addition of 100 μM ethyl nitrite after lidocaine (2%).
The mark [6] stands for this setting: 30 min after application, 2% lidocaine or 10^−4M ENO, 15 min after ET-1, mean±SEM.
The mark [7] stands for this setting: topical 10^−5 M ET-1 on pedicle.

Take `CC(N=O)(S(C)(=O)=O)S(C)(=O)=O` [compound (1)]: the “vasodilation and blood flow after vasospasm” value in test [1] is reported as “same result”.

On to `CCON=O` [ENO, ethyl nitrite], for which, in test [2] (setting [5]), the “EKG (ischemia)” value is reported as “normalized EKG” and the “blood flow in grafts” value is reported as “restored flow”. For the same molecule, the “vasodilation and blood flow after vasospasm” value in test [1] is “vasodilation and flow is restored”. The “overall effect on arterial dilation and blood flow (in words)” value in test [3] (2% lidocaine vs 10^−4M ENO) is “longer lasting and greater effect”. Further, in test [3] (10^−4M ENO vs 2% lidocaine), the “time after application from which restoration of arterial diameter is greater compared to lidocaine (p<0.05)” value is 10 min and the “time after application from which restoration of blood flow is greater compared to lidocaine (p<0.05)” value stood at 13 min. The arterial diameter in test [3] (1 min after application (lidocaine: within 1 min), 2% lidocaine or 10^−4M ENO, 15 min after ET-1, mean±SEM) is 83±5 % of baseline. The flap blood flow in test [3] (2 min after application, 2% lidocaine or 10^−4M ENO, 15 min after ET-1, laser Doppler, mean±SEM) is listed as 62±6 % of baseline. In addition, the flap blood flow in test [3] (30 min after application, 2% lidocaine or 10^−4M ENO, 15 min after ET-1, laser Doppler, mean±SEM) is 86±10 % of baseline. In addition, in test [3] (setting [6]), the arterial diameter is recorded as 98±5 % of baseline and the vein diameter was 75±5 % of baseline.

For O— and S-nitrosylated β-cyclodextrin, the headache relief result in the test with headache is “relieved headache”.

As for “ET-1: Endothelin-1, applied topically to induce pedicle vasoconstriction (CSCSSLMDKECVYFCHLDIIW; ends and bridges not checked; cysteine pairing not given here; UniProt P05305 53-73, looked up) [reference compound]”, in test [3] (setting [7]), the “vasoconstriction of the epigastric artery” value is reported as 69-76% and the “vasoconstriction of the epigastric vein” value is reported as 43-72%. Also, the “reduction of flap blood flow to % of baseline” value in test [3] (topical 10^−5 M ET-1 on pedicle, laser Doppler) is 35-45 % of baseline.

Consider `CCN(CC)CC(=O)Nc1c(C)cccc1C` [lidocaine, reference compound], for which, in the test with pedicle flap, the “effect on vasoconstriction / blood flow, decreasing to % of baseline” value is recorded as ≤ 50 % of baseline. Also, the “blood flow in grafts” value in test [2] (topical lidocaine (2%)) is reported as “temporary but marginal blood flow”.

Turning to “nitrosylated polythiolated cyclodextrin [CX—NO]”, in test [4], the “arterial diameter as a percentage of baseline” value was “increase” and the “vein diameter as a percentage of baseline” value is “increase”. Further, in test [4] (laser Doppler), the “blood flow in small vessels as a percentage of baseline flow” value is recorded as “increase”.
